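Each compound was tested at five concentrations against cells in 96-well plates for 48 hours. At the GI50, growth is halved. TGI: total growth inhibition.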

One experiment relates to MOLT-4 leukemia. The experiment in a line: NCI tumour cell line growth inhibition, 48 h.
Consider `Cc1cc2c3c(nc4ccccc42)C(=O)c2ccccc2-c3n1`, for which the TGI came out at 24.1 µM.
Still for that read-out and setting: under `COc1ccc2c(c1)/C(=C\c1c(Cl)nc3sc(C)cn13)C(=O)N2` stands 8.41 µM.
On to `CO[C@H]1/C=C(/C)CCC[C@H](C)[C@H](O)[C@@H](C)C(=O)C(C)(C)[C@@H](O)CC(=O)O[C@@H]1/C(C)=C/c1csc(C)n1`, for which the GI50 is 0.0359 µM and the TGI was > 100 µM.
As for `OCCc1ccsc1-c1sc(-c2cc(CCO)c(-c3sccc3CCO)s2)cc1CCO`, the TGI was > 100 µM.
For `COc1cccc2c(=O)oc(-c3ccc(C(C)(C)C)cc3)nc12`, the TGI is 48.2 µM.
On the same count and under the same terms, the result for `COc1ccc2c(c1)OCC1Cc3ccccc3OC21` (stereo not drawn) reads > 100 µM.
Still for that read-out and setting: the result for `COC(=O)C1CCC(=O)N1C(c1ccc(OC)cc1)c1ccc2c(c1)OCO2` (stereo not drawn) reads > 100 µM; that for `CC1=NN(c2cccc(Cl)c2)C2(C1=C/C=C/c1ccccc1)C(Cl)C(=O)N2c1nc2ccccc2s1` (stereo not drawn), 12.1 µM.
On to `C=CCSc1nnc2cc(CN3CCCC3)c(-c3ccc(Cl)cc3)nn12`, for which the TGI was > 100 µM.
For `CCOC(=O)c1cn2c(nc1=O)N[C@H]1CCCC[C@@H]12`, the TGI was > 100 µM.
The same measure, in the same setting: the result for `CN(C)c1ccc(C(=N/N=C2\C(=O)Nc3ccccc32)c2ccc(N(C)C)cc2)cc1` reads 52.7 µM; that for `Cc1ccc(C(=C2Sc3ccccc3S2)C(=C2Sc3ccccc3S2)c2ccc(C)s2)s1`, > 100 µM.
Turning to `CC1(C)CCCC2OC2CCC(C)(C)C1=O` (stereo not drawn), the TGI is > 100 µM.

Another experiment concerns CCRF-CEM leukemia. The experiment in a line: NCI tumour cell line growth inhibition, 48 h.
As for `CC(=O)Nc1nc(C#N)[nH]c1C#N`, the TGI is > 100 µM.
On the same count and under the same terms, the result for `O=C(O)/C=C(/C(=O)O)C12CCN3CC4=CCOC5CC(=O)NC1C5C4CC32` (stereo not drawn) reads > 100 µM.
On the same count and under the same terms, under `Cc1c(S(=O)(=O)c2ccccc2)c(N)n(CCN(C)C)c1C` stands > 100 µM.
On the same count and under the same terms, under `COc1ccc2c(C)cc(=O)oc2c1OC` stands > 100 µM.
Turning to `COc1cccc2c1OC1(C=C2)Oc2ccccc2C(=O)N1C` (stereo not drawn), the TGI turned out to be 46.2 µM.
`O=[N+]([O-])c1ccc(Oc2c(Cl)cc(S(=O)(=O)/N=C(\NO)Nc3ccc(Cl)cc3)cc2Cl)cc1`: the TGI came to 24.5 µM.
Same read-out and setting: under `Cc1cc(N(CCOS(C)(=O)=O)CCOS(C)(=O)=O)ccc1C=O` stands > 100 µM; under `O=c1[nH]c(=O)n(C2OC(CO)C(O)C2O)c2nc(-c3ccc(-c4ccccc4)cc3)cnc12` (stereo not drawn), > 100 µM; under `CN1CSC(=S)N(c2c3ccccc3nc3ccc(Br)cc23)C1`, 22.8 µM.
The same measure, in the same setting: under `CCCCCCOc1ccc(C(=O)NOC)cc1` stands > 100 µM; under `NS(=O)(=O)c1cc(Cl)c(NC(=S)NC(=O)Nc2ccc(Cl)c(Cl)c2)c(Cl)c1`, > 100 µM.
Same read-out and setting: the result for `Cc1cn(C2CC(O)C(CO)O2)c(=O)[nH]c1=O` (stereo not drawn) reads 2390 µM; that for `CCOC(=O)c1c(C)nc2c3ccccc3c(C#N)c(C)n12`, > 100 µM.
`Cc1cc2c3c(nc4ccccc42)C(=O)c2ccccc2-c3n1` returned a TGI of 73.3 µM.
Same read-out and setting: under `COc1ccc2c(c1)/C(=C\c1c(Cl)nc3sc(C)cn13)C(=O)N2` stands 6.15 µM.
`CO[C@H]1/C=C(/C)CCC[C@H](C)[C@H](O)[C@@H](C)C(=O)C(C)(C)[C@@H](O)CC(=O)O[C@@H]1/C(C)=C/c1csc(C)n1`: the GI50 was 0.03 µM and the TGI was > 100 µM.
Take `OCCc1ccsc1-c1sc(-c2cc(CCO)c(-c3sccc3CCO)s2)cc1CCO`: the TGI was > 100 µM.
The same measure, in the same setting: the result for `COc1cccc2c(=O)oc(-c3ccc(C(C)(C)C)cc3)nc12` reads > 100 µM; that for `COc1ccc2c(c1)OCC1Cc3ccccc3OC21` (stereo not drawn), > 100 µM.
As to `COC(=O)C1CCC(=O)N1C(c1ccc(OC)cc1)c1ccc2c(c1)OCO2` (stereo not drawn), the TGI is > 100 µM.
On the same count and under the same terms, the result for `CC1=NN(c2cccc(Cl)c2)C2(C1=C/C=C/c1ccccc1)C(Cl)C(=O)N2c1nc2ccccc2s1` (stereo not drawn) reads > 59.3 µM; that for `C=CCSc1nnc2cc(CN3CCCC3)c(-c3ccc(Cl)cc3)nn12`, > 100 µM.
On to `CCOC(=O)c1cn2c(nc1=O)N[C@H]1CCCC[C@@H]12`, for which the TGI is > 100 µM.
The same measure, in the same setting: under `CN(C)c1ccc(C(=N/N=C2\C(=O)Nc3ccccc32)c2ccc(N(C)C)cc2)cc1` stands 13.2 µM; under `Cc1ccc(C(=C2Sc3ccccc3S2)C(=C2Sc3ccccc3S2)c2ccc(C)s2)s1`, > 100 µM; under `CC1(C)CCCC2OC2CCC(C)(C)C1=O` (stereo not drawn), > 100 µM.

Another experiment deals with SF-295 CNS. The experiment in a line: NCI tumour cell line growth inhibition, 48 h.
Take `CC(=O)Nc1nc(C#N)[nH]c1C#N`: the TGI is > 100 µM.
Still for that read-out and setting: under `O=C(O)/C=C(/C(=O)O)C12CCN3CC4=CCOC5CC(=O)NC1C5C4CC32` (stereo not drawn) stands > 100 µM; under `Cc1c(S(=O)(=O)c2ccccc2)c(N)n(CCN(C)C)c1C`, > 100 µM; under `COc1ccc2c(C)cc(=O)oc2c1OC`, > 100 µM.
Still for that read-out and setting: under `COc1cccc2c1OC1(C=C2)Oc2ccccc2C(=O)N1C` (stereo not drawn) stands 97.9 µM.
Same read-out and setting: the result for `O=[N+]([O-])c1ccc(Oc2c(Cl)cc(S(=O)(=O)/N=C(\NO)Nc3ccc(Cl)cc3)cc2Cl)cc1` reads 27.3 µM; that for `Cc1cc(N(CCOS(C)(=O)=O)CCOS(C)(=O)=O)ccc1C=O`, > 100 µM.
In the case of `O=c1[nH]c(=O)n(C2OC(CO)C(O)C2O)c2nc(-c3ccc(-c4ccccc4)cc3)cnc12` (stereo not drawn), the TGI was > 100 µM.
`CN1CSC(=S)N(c2c3ccccc3nc3ccc(Br)cc23)C1` showed a TGI of 21.2 µM.
Take `CCCCCCOc1ccc(C(=O)NOC)cc1`: the TGI was > 100 µM.
Same read-out and setting: under `NS(=O)(=O)c1cc(Cl)c(NC(=S)NC(=O)Nc2ccc(Cl)c(Cl)c2)c(Cl)c1` stands > 100 µM.
On the same count and under the same terms, under `Cc1cn(C2CC(O)C(CO)O2)c(=O)[nH]c1=O` (stereo not drawn) stands > 5000 µM; under `CCOC(=O)c1c(C)nc2c3ccccc3c(C#N)c(C)n12`, > 100 µM.
`Cc1cc2c3c(nc4ccccc42)C(=O)c2ccccc2-c3n1` yielded a TGI of 60.4 µM.
The compound `COc1ccc2c(c1)/C(=C\c1c(Cl)nc3sc(C)cn13)C(=O)N2` gave a TGI of 11 µM.
On to `CO[C@H]1/C=C(/C)CCC[C@H](C)[C@H](O)[C@@H](C)C(=O)C(C)(C)[C@@H](O)CC(=O)O[C@@H]1/C(C)=C/c1csc(C)n1`, for which the GI50 was < 0.0168 µM and the TGI was 0.279 µM.
`OCCc1ccsc1-c1sc(-c2cc(CCO)c(-c3sccc3CCO)s2)cc1CCO`: the TGI amounted to 30.3 µM.
Same read-out and setting: under `COc1cccc2c(=O)oc(-c3ccc(C(C)(C)C)cc3)nc12` stands > 100 µM; under `COc1ccc2c(c1)OCC1Cc3ccccc3OC21` (stereo not drawn), > 100 µM.
`COC(=O)C1CCC(=O)N1C(c1ccc(OC)cc1)c1ccc2c(c1)OCO2` (stereo not drawn): the TGI was found to be 48 µM.
Still for that read-out and setting: the result for `CC1=NN(c2cccc(Cl)c2)C2(C1=C/C=C/c1ccccc1)C(Cl)C(=O)N2c1nc2ccccc2s1` (stereo not drawn) reads > 100 µM; that for `C=CCSc1nnc2cc(CN3CCCC3)c(-c3ccc(Cl)cc3)nn12`, 53.7 µM.
Still for that read-out and setting: the result for `CCOC(=O)c1cn2c(nc1=O)N[C@H]1CCCC[C@@H]12` reads > 100 µM.
Compound `CN(C)c1ccc(C(=N/N=C2\C(=O)Nc3ccccc32)c2ccc(N(C)C)cc2)cc1` displayed a TGI of 4.13 µM.
Regarding `Cc1ccc(C(=C2Sc3ccccc3S2)C(=C2Sc3ccccc3S2)c2ccc(C)s2)s1`, the TGI is > 100 µM.
On the same count and under the same terms, the result for `CC1(C)CCCC2OC2CCC(C)(C)C1=O` (stereo not drawn) reads > 100 µM.

Source of the values: PubChem BioAssay (NCI).
